Source: US20160250285A1, “NEUROPROTECTIVE PEPTIDES” (priority 2013, published 2016)
Entries after “also recorded” stand apart in the source; their conditions may differ. Read-outs that look alike come from different tables or passages of the source.

Key:
[1] = tested on: brain endothelial cells (bEND3 cells); assay: In vitro ischemia/OGD model, bEND3 cells; type: cell-based; conditions: peptide during/after ischemia (FIG. 3c) or 15 min before OGD (FIGS. 23, 24)
Method: The in vitro ischemia model was also used for bEND3 cells, SH-SY5Y cells, and astrocytes. For bEND3 cells anaerobic incubation was extended to 2-3 hours and upon removal from the anaerobic incubator, 60 μl of DMEM/2% FCS was added to wells. […] Upon removal from the anaerobic incubator, 60 μl of DMEM/2% FCS was added to wells.
Twenty-four hours after insult, neuronal cultures were examined by light microscopy for qualitative assessment of neuronal cell viability. Neuronal viability was quantitatively measured by 3-(4,5,dimethyliazol-2-yl)-5-(3-carboxymethoxy-phenyl)-2-(4-sulfophenyl)-2H-tetrazolium salt (MTS) assay (Promega, Australia). The MTS assay measures the cellular conversion of the tetrazolium salt to a water-soluble brown formazan salt, which is detected spectrophotometrically at 490 nm. MTS absorbance data were converted to reflect proportional cell viability relative to both the untreated and treated controls, with the untreated control taken as 100% viability, and presented as mean±SEM. For studies using astrocytes, bEND3, and SH-Y5Y cells, raw MTS data was used to generate graphs. Viability data was analysed by ANOVA, followed by post-hoc Fischer's PLSD test, with P<0.05 values considered statistically significant. Four- to six wells were used in all assays.

[2] = tested on: neuroblastoma cell line (SH-SY5Y); assay: In vitro ischemia model, SH-SY5Y cells; type: cell-based; conditions: 5 μM during/2.5 μM post (FIG. 3c)
Method: (§1) A brain endothelial cell line (bEND3) and a neuroblastoma cell line (SH-SY5Y) were also used for some experiments. bEND3 and SH-SY5Y cells were cultured using standard techniques in DMEM plus 5 or 15% foetal calf serum. Rat primary astrocytes were obtained and cultured as described for cortical neurons except DMEM plus 10% foetal calf serum was used instead of Neurobasal/2% B27, and the mitotic inhibitor, cytosine arabinofuraNOside was not used.
(§2) The in vitro ischemia model was also used for bEND3 cells, SH-SY5Y cells, and astrocytes. For bEND3 cells anaerobic incubation was extended to 2-3 hours and upon removal from the anaerobic incubator, 60 μl of DMEM/2% FCS was added to wells. […]
(§3) Twenty-four hours after insult, neuronal cultures were examined by light microscopy for qualitative assessment of neuronal cell viability. Neuronal viability was quantitatively measured by 3-(4,5,dimethyliazol-2-yl)-5-(3-carboxymethoxy-phenyl)-2-(4-sulfophenyl)-2H-tetrazolium salt (MTS) assay (Promega, Australia). The MTS assay measures the cellular conversion of the tetrazolium salt to a water-soluble brown formazan salt, which is detected spectrophotometrically at 490 nm. MTS absorbance data were converted to reflect proportional cell viability relative to both the untreated and treated controls, with the untreated control taken as 100% viability, and presented as mean±SEM. […]

[3] = tested on: primary cortical neuronal cultures; conditions: for neuroprotection, peptide present during the 5 minute glutamic acid insult only: FIG. 28; for neuroprotection, 10 minute pre-exposure removed immediately prior to insult: FIG. 29, FIG. 14
primary rat astrocytes = assay: In vitro ischemia/OGD model, astrocytes; type: cell-based; conditions: 2 μM, 15 min prior to OGD (FIG. 42)
Method: as §1, §2, §3

| Molecule | protection of bEND3 cells (cell death / viability after in vitro ischemia/OGD) [1] | protection of SH-SY5Y cells (cell death after in vitro ischemia) [2] | neuroprotection when added 15 minutes post-insult ([3]; 15 min post-glutamic acid (FIG. 1d)) | neuroprotection, peptide present during the 5 minute glutamic acid insult only [3] | neuroprotection, 10 minute pre-exposure removed immediately prior to insult [3] | fold more potent than TAT-D, based on IC50 values ([3]; glutamic acid model) | MTS absorbance levels relative to baseline ([3]; normal neurons and following injury) | IC50 ([3]; read-out: IC50: Glutamic acid model, Table 3, from dose response graph FIG. 1a, peptide 15 min prior to and during 100 μM glutamic acid (5 min), viability 24 h, MTS) | IC50 ([3]; read-out: IC50: Glutamic acid model, Table 4, polyarginine peptides, from dose response graph FIG. 1e) | astrocyte cell death after in vitro ischemia (primary rat astrocytes) | IC50 [3] | neuroprotective efficacy at the higher concentration ([3]; 5 μM, dose response study) | neuroprotection (neuronal viability) ([3]; peptide 15 min prior to and during glutamic acid exposure, viability 24 h, MTS) |
| --- | --- | --- | --- | --- | --- | --- | --- | --- | --- | --- | --- | --- | --- |
| N=C(N)NCCC[C@H](NC(=O)[C@H](CCCNC(=N)N)NC(=O)[C@H](CCCNC(=N)N)NC(=O)[C@H](CCCNC(=N)N)NC(=O)[C@H](CCCNC(=N)N)NC(=O)[C@H](CCCNC(=N)N)NC(=O)[C@H](CCCNC(=N)N)NC(=O)[C@H](CCCNC(=N)N)NC(=O)[C@@H](N)CCCNC(=N)N)C(=O)O [Peptide R9] | reduced; also recorded: able to protect | reduced; also recorded: able to protect | mildly effective | effective | effective | 17 fold | increase MTS absorbance levels above baseline levels | 780 nM | 830 nM |  |  |  |  |
| H-RRRRRRRRRRRRRRRRRR-OH [Peptide R18] |  |  |  | effective | effective |  |  |  |  | reduced astrocyte cell death | 240 nM | reduced | showed significant neuroprotection |
